Reference: PubChem BioAssay (NCI)
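All cell lines were grown in 96-well plates and treated with compound for 48 hours. The concentration for 50% growth inhibition is given as GI50. TGI is the concentration that stops growth completely.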

Columns and labels:
Assay in all cases: NCI-60 cell line screen, 48 h
HCC-2998 colon = test system: HCC-2998 colon
HCT-116 colon = test system: HCT-116 colon
HOP-62 NSCLC = test system: HOP-62 NSCLC
K-562 leukemia = test system: K-562 leukemia
MCF7 breast = test system: MCF7 breast
NCI-H522 lung = test system: NCI-H522 lung
NCI/ADR-RES ovarian = test system: NCI/ADR-RES ovarian
OVCAR-5 ovarian = test system: OVCAR-5 ovarian
OVCAR-8 ovarian = test system: OVCAR-8 ovarian
U251 CNS = test system: U251 CNS

SMILES	GI50 (HCC-2998 colon) [µM]	TGI (HCC-2998 colon) [µM]	GI50 (HCT-116 colon) [µM]	TGI (HCT-116 colon) [µM]	GI50 (HOP-62 NSCLC) [µM]	TGI (HOP-62 NSCLC) [µM]	GI50 (K-562 leukemia) [µM]	TGI (K-562 leukemia) [µM]	GI50 (MCF7 breast) [µM]	TGI (MCF7 breast) [µM]	GI50 (NCI-H522 lung) [µM]	TGI (NCI-H522 lung) [µM]	GI50 (NCI/ADR-RES ovarian) [µM]	TGI (NCI/ADR-RES ovarian) [µM]	GI50 (OVCAR-5 ovarian) [µM]	TGI (OVCAR-5 ovarian) [µM]	GI50 (OVCAR-8 ovarian) [µM]	TGI (OVCAR-8 ovarian) [µM]	GI50 (U251 CNS) [µM]	TGI (U251 CNS) [µM]
O=P(O)(O)OC1C(OP(=O)(O)O)C(OP(=O)(O)O)C(OP(=O)(O)O)C(OP(=O)(O)O)C1OP(=O)(O)O (stereo not given)	> 2000	> 2000	> 2000	> 2000	> 2000	> 2000	> 2000	> 2000	> 2000	> 2000	> 2000	> 2000	> 2000	> 2000	> 2000	> 2000	> 2000	> 2000	> 2000	> 2000
CC(C)(O)Cn1c(=O)c(Oc2ccc(F)cc2F)cc2cnc(NC3CCOCC3)nc21	> 25	> 25	> 25	> 25	> 25	> 25	> 25	> 25	> 25	> 25	> 25	> 25	> 25	> 25	> 25	> 25	> 25	> 25	> 25	> 25
CCc1cc(C(N)=O)ccc1-n1nc(C(C)C)c2c(-n3cnc(-c4cnn(C)c4)c3)ccnc21	3.39	> 100	0.554	> 100	7.92	> 100	0.867	> 100	0.443	> 100	1.47	> 100	32.8	> 100	15.4	> 100	3.72	> 100	3.82	> 100
COc1ccc(/C=C2/SC(=Nc3c(C)nn(-c4ccccc4)c3N)NC2=O)cc1	6.87	20.6	3.3	12.5	4.12	39.9	3.02	> 100	3.08	31.5	3.1	16.4	4.36	39.4	10.9	63.2	13.7	77.9	4.75	34.7
O=C(Nc1nc2ncn(CCOC(=O)c3ccccc3)c2c(=O)[nH]1)c1ccccc1		> 100		> 100		> 100		> 100		> 100		8.32		> 100		> 100		> 100		> 64.8
CC/C=C/[C@@H]1C=C[C@@H]2CCC[C@H]2[C@@H]1CC[C@H](O)[C@H](C)N	1.42	2.74	1.53	2.86	1.47	2.8	1.38	2.67	1.52	2.85	1.82	3.99	1.97	4.4	1.69	3.55	2.3	5.54	1.53	2.86
COc1ccccc1/C=C1\COc2ccc(O)c(O)c2C1=O	1.76	3.25	1.61	3.99	3.1	9.54	0.671	14.1	0.36	> 100	0.214	0.656	1.88	6.64	2.33	5.48	2.38	> 100	1.57	3.99
